ChEMBL document CHEMBL1147578, “Design, synthesis, and SAR of anthranilamide-based factor Xa inhibitors with improved functional activity” (Bioorg Med Chem Lett, 2004)
Values belong to the compound of their own block, whether it stands above or below them.

Tests used:
[1] = target: Vitamin K-dependent protein C (Homo sapiens, UniProt P04070); test: Inhibitory activity against activated protein C
[2] = target: Coagulation factor X (Homo sapiens, UniProt P00742); test: In vitro inhibitory activity against coagulation factor X.
[3] = target: Plasminogen (Homo sapiens, UniProt P00747); test: Inhibitory activity against plasmin.
[4] = target: Tissue-type plasminogen activator (Homo sapiens, UniProt P00750); test: Inhibitory activity against tissue type plasminogen activator.
[5] = target: Prothrombin (Homo sapiens, UniProt P00734); test: Inhibitory activity against thrombin.
[6] = target: Serine protease 1 (Homo sapiens, UniProt P07477); test: Inhibitory activity against trypsin.
[7] = species: Homo sapiens; test: Concentration required to double the lag time of maximum thrombin generation in human plasma-based thrombin generation assay; format: functional

Chain of Vitamin K-dependent protein C (P04070 43-197 limits assumed): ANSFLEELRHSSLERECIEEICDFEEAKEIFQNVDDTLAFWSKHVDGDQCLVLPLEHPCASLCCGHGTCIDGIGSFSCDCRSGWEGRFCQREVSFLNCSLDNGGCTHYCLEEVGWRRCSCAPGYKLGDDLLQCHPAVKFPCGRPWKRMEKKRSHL
Chain of Vitamin K-dependent protein C (P04070 212-461 limits assumed): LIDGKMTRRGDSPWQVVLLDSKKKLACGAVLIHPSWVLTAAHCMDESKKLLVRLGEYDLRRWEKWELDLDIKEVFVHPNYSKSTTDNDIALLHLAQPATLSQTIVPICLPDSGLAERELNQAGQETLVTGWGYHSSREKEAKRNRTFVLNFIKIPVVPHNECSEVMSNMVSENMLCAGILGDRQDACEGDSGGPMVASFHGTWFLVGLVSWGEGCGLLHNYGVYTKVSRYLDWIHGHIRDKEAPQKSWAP
Chain of Tissue-type plasminogen activator (P00750 whole entry): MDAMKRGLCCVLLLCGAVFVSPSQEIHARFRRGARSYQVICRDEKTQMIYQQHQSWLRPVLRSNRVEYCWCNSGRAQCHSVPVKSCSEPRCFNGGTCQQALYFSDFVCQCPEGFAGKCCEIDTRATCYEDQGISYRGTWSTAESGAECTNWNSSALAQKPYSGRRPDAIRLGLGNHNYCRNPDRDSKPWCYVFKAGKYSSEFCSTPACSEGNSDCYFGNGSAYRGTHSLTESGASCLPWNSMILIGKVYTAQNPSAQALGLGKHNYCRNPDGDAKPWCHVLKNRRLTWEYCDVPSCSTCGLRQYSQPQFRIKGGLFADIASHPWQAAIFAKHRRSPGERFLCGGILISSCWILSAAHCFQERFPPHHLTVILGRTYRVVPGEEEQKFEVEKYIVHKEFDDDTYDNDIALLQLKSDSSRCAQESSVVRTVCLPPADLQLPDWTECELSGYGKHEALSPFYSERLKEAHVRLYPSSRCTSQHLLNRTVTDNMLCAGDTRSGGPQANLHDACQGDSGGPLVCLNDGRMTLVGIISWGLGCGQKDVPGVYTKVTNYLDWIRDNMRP
Chain of Coagulation factor X (P00742 41-179 limits assumed): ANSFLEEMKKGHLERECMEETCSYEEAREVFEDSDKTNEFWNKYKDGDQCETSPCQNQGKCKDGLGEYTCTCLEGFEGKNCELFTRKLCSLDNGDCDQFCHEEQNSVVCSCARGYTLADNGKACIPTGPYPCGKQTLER
Chain of Coagulation factor X (P00742 235-488 limits assumed): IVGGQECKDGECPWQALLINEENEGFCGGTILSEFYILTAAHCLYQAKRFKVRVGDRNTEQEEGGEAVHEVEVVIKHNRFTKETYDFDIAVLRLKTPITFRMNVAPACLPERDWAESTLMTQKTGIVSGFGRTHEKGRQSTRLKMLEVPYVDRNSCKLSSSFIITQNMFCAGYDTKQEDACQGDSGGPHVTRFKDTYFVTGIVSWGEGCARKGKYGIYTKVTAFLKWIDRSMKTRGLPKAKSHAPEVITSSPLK
Chain of Serine protease 1 (P07477 whole entry): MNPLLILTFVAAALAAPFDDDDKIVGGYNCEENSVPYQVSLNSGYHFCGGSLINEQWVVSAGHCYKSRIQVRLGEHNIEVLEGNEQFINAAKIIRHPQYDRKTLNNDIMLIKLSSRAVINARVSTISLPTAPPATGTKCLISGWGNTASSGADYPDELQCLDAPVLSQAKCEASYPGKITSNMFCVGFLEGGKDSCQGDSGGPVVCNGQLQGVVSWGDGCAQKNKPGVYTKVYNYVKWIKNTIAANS
Chain of Plasminogen (P00747 97-580 limits assumed): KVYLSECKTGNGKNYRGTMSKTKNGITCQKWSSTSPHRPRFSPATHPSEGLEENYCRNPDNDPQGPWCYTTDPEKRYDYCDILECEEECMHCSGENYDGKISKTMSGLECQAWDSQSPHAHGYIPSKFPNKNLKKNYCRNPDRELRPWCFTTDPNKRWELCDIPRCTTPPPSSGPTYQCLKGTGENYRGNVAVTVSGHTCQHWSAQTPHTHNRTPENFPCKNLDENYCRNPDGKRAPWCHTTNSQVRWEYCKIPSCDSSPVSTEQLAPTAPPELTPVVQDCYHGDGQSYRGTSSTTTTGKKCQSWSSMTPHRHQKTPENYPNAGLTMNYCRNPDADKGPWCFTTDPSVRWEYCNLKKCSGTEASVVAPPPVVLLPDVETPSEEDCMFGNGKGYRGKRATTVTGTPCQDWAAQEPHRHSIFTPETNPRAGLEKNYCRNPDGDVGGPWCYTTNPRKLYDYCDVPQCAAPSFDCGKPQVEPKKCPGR
Chain of Plasminogen (P00747 581-810 limits assumed): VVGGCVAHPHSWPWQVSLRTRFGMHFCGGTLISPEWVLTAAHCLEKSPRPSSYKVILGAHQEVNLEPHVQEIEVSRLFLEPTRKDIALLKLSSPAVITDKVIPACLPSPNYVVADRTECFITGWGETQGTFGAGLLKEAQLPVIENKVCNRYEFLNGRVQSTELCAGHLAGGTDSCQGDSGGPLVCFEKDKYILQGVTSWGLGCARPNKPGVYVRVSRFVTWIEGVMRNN

Structure (SMILES): N=C(N)NCc1ccc(C(=O)Nc2ccc(Cl)cc2C(=O)Nc2ccc(Cl)cn2)cc1
IC50 [1]: > 11 µM | IC50 [2]: 0.0014 µM | IC50 [3]: > 11 µM | IC50 [4]: > 11 µM | IC50 [5]: > 11 µM | IC50 [6]: > 11 µM

Structure (SMILES): CN(Cc1ccc(C(=O)Nc2ccc(Cl)cc2C(=O)Nc2ccc(Cl)cn2)cc1)C1=NCCN1
IC50 [1]: > 11 µM | IC50 [2]: 0.002 µM | IC50 [3]: > 11 µM | IC50 [4]: > 11 µM | IC50 [5]: > 11 µM | IC50 [6]: > 11 µM

Structure (SMILES): NC(=O)C1CCN(Cc2ccc(C(=O)Nc3ccc(Cl)cc3C(=O)Nc3ccc(Cl)cn3)cc2)CC1
IC50 [1]: > 11 µM | IC50 [2]: 0.076 µM | IC50 [3]: > 11 µM | IC50 [4]: > 11 µM | IC50 [5]: > 11 µM | IC50 [6]: > 11 µM

Structure (SMILES): O=C(Nc1ccc(Cl)cc1C(=O)Nc1ccc(Cl)cn1)c1ccc(CN2CCCCC2)cc1
IC50 [1]: > 11 µM | IC50 [2]: 0.015 µM | IC50 [3]: > 11 µM | IC50 [4]: > 11 µM | IC50 [5]: > 11 µM | IC50 [6]: > 11 µM

Structure (SMILES): CC(=O)NNCc1ccc(C(=O)Nc2ccc(Cl)cc2C(=O)Nc2ccc(Cl)cn2)cc1
IC50 [1]: > 11 µM | IC50 [2]: 0.04 µM | IC50 [3]: > 11 µM | IC50 [4]: > 11 µM | IC50 [5]: > 11 µM | IC50 [6]: > 11 µM

Structure (SMILES): CN(C)C1=NCCN1Cc1ccc(C(=O)Nc2ccc(Cl)cc2C(=O)Nc2ccc(Cl)cn2)cc1
IC50 [1]: > 11 µM | IC50 [2]: 0.0013 µM | IC50 [3]: > 11 µM | IC50 [4]: > 11 µM | IC50 [5]: > 11 µM | IC50 [6]: > 11 µM

Structure (SMILES): CCN(C)Cc1ccc(C(=O)Nc2ccc(Cl)cc2C(=O)Nc2ccc(Cl)cn2)cc1
IC50 [1]: > 11 µM | IC50 [2]: 0.012 µM | IC50 [3]: > 11 µM | IC50 [4]: > 11 µM | IC50 [5]: > 11 µM | IC50 [6]: > 11 µM

Structure (SMILES): C[N+]1(Cc2ccc(C(=O)Nc3ccc(Cl)cc3C(=O)Nc3ccc(Cl)cn3)cc2)CCCC1
IC50 [1]: > 11 µM | IC50 [2]: 0.0023 µM | IC50 [3]: > 11 µM | IC50 [4]: > 11 µM | IC50 [5]: > 11 µM | IC50 [6]: > 11 µM

Structure (SMILES): C/N=C(/NC)N(C)Cc1ccc(C(=O)Nc2ccc(Cl)cc2C(=O)Nc2ccc(Cl)cn2)cc1
IC50 [1]: > 11 µM | IC50 [2]: 0.0008 µM | IC50 [3]: > 11 µM | IC50 [4]: > 11 µM | IC50 [5]: > 11 µM | IC50 [6]: > 11 µM

Further compounds by falling IC50 [2], results first:

IC50 [1]: > 11 µM | IC50 [2]: 0.171 µM | IC50 [3]: > 11 µM | IC50 [4]: > 11 µM | IC50 [5]: > 11 µM | IC50 [6]: > 11 µM
Structure (SMILES): CCOC(=O)C1CCN(Cc2ccc(C(=O)Nc3ccc(Cl)cc3C(=O)Nc3ccc(Cl)cn3)cc2)CC1

IC50 [1]: > 11 µM | IC50 [2]: 0.14 µM | IC50 [3]: > 11 µM | IC50 [4]: > 11 µM | IC50 [5]: > 11 µM | IC50 [6]: > 11 µM
Structure (SMILES): O=C(Nc1ccc(Cl)cc1C(=O)Nc1ccc(Cl)cn1)c1ccc(CN2CCOCC2)cc1

IC50 [1]: > 11 µM | IC50 [2]: 0.035 µM | IC50 [3]: > 11 µM | IC50 [4]: > 11 µM | IC50 [5]: > 11 µM | IC50 [6]: > 11 µM
Structure (SMILES): O=C(Nc1ccc(Cl)cc1C(=O)Nc1ccc(Cl)cn1)c1ccc(CN2CCN=C2S)cc1

IC50 [1]: > 11 µM | IC50 [2]: 0.016 µM | IC50 [3]: > 11 µM | IC50 [4]: > 11 µM | IC50 [5]: > 11 µM | IC50 [6]: > 11 µM
Structure (SMILES): O=C(Nc1ccc(Cl)cc1C(=O)Nc1ccc(Cl)cn1)c1ccc(CN2CCCC2)cc1

IC50 [1]: > 11 µM | IC50 [2]: 0.015 µM | IC50 [3]: > 11 µM | IC50 [4]: > 11 µM | IC50 [5]: > 11 µM | IC50 [6]: > 11 µM
Structure (SMILES): NC1CCN(Cc2ccc(C(=O)Nc3ccc(Cl)cc3C(=O)Nc3ccc(Cl)cn3)cc2)CC1

IC50 [1]: > 11 µM | IC50 [2]: 0.011 µM | IC50 [3]: > 11 µM | IC50 [4]: > 11 µM | IC50 [5]: > 11 µM | IC50 [6]: > 11 µM
Structure (SMILES): CN(Cc1ccc(C(=O)Nc2ccc(Cl)cc2C(=O)Nc2ccc(Cl)cn2)cc1)C(=N)c1ccccc1

IC50 [1]: > 11 µM | IC50 [2]: 0.007 µM | IC50 [3]: > 11 µM | IC50 [4]: > 11 µM | IC50 [5]: > 11 µM | IC50 [6]: > 11 µM
Structure (SMILES): CNCc1ccc(C(=O)Nc2ccc(Cl)cc2C(=O)Nc2ccc(Cl)cn2)cc1

IC50 [1]: > 11 µM | IC50 [2]: 0.0036 µM | IC50 [3]: > 11 µM | IC50 [4]: > 11 µM | IC50 [5]: > 11 µM | IC50 [6]: > 11 µM
Structure (SMILES): CC(=N)NCc1ccc(C(=O)Nc2ccc(Cl)cc2C(=O)Nc2ccc(Cl)cn2)cc1

IC50 [1]: > 11 µM | IC50 [2]: 0.0035 µM | IC50 [3]: > 11 µM | IC50 [4]: > 11 µM | IC50 [5]: > 11 µM | IC50 [6]: > 11 µM
Structure (SMILES): CNC1=NCCN1Cc1ccc(C(=O)Nc2ccc(Cl)cc2C(=O)Nc2ccc(Cl)cn2)cc1

IC50 [1]: > 11 µM | IC50 [2]: 0.002 µM | IC50 [3]: > 11 µM | IC50 [4]: > 11 µM | IC50 [5]: > 11 µM | IC50 [6]: > 11 µM
Structure (SMILES): CN(CCN(C)C(=N)N)Cc1ccc(C(=O)Nc2ccc(Cl)cc2C(=O)Nc2ccc(Cl)cn2)cc1

IC50 [1]: > 11 µM | IC50 [2]: 0.0015 µM | IC50 [3]: > 11 µM | IC50 [4]: > 11 µM | IC50 [5]: > 11 µM | IC50 [6]: > 11 µM
Structure (SMILES): CN(Cc1ccc(C(=O)Nc2ccc(Cl)cc2C(=O)Nc2ccc(Cl)cn2)cc1)C1=NCCO1

IC50 [2]: 0.0013 µM
Structure (SMILES): NCc1ccccc1-c1ccc(C(=O)Nc2ccc(Cl)cc2C(=O)Nc2ccc(Cl)cn2)cc1
Activity [7]: >5 µM
